Data reported in the CheMixHub viscosity set.
Where “and” joins values, the source holds several entries; their conditions need not be identical. Identical values can stand only once.

Tests used:
[1] = xn = mol fraction of the nth substance listed

CCCCCCCCBr
101 kPa
Settings	viscosity [mPa·s]
293.15 K	1.544
303.55 K	1.406
313.65 K	1.204

CCOCCO
viscosity
Settings	293.15 K	298.15 K	303 K	303.15 K	308.15 K	313 K	313.15 K	318.15 K	323.15 K
100 kPa	–	1.92 mPa·s	–	1.682 mPa·s	–	–	–	–	–
101 kPa	2.054 mPa·s	1.814 mPa·s	1.67 mPa·s	–	1.487 mPa·s and 1.453 mPa·s and 1.469 mPa·s	1.341 mPa·s	1.336 mPa·s and 1.341 mPa·s and 1.368 mPa·s	1.279 mPa·s	1.065 mPa·s
101.3 kPa	2.04 mPa·s	1.819 mPa·s	–	1.631 mPa·s	1.402 mPa·s and 1.47 mPa·s	–	1.332 mPa·s	1.212 mPa·s	1.108 mPa·s
101.33 kPa	–	–	–	–	–	–	–	1.18 mPa·s	–

CNC(C)=O
viscosity
Settings	293.15 K	298.15 K	303.15 K	303.18 K	308.15 K	313 K	313.15 K	318.15 K
101 kPa	5.56 mPa·s	4.771 mPa·s	4.087 mPa·s and 3.822 mPa·s (2×)	3.65 mPa·s	3.535 mPa·s	3.012 mPa·s	3.078 mPa·s and 2.904 mPa·s	2.764 mPa·s and 2.607 mPa·s
101.33 kPa	–	–	–	–	3.38 mPa·s	–	3.012 mPa·s and 3.004 mPa·s	2.673 mPa·s

CNCCO
viscosity
Settings	293.15 K	298.15 K	303.15 K	308.15 K	313.15 K	318.15 K	323.15 K
101 kPa	–	–	8.596 mPa·s	7.075 mPa·s	5.892 mPa·s	4.949 mPa·s	4.204 mPa·s
101.3 kPa	13.23 mPa·s	10.63 mPa·s	8.612 mPa·s and 8.535 mPa·s	7.07 mPa·s and 7.014 mPa·s	5.883 mPa·s and 5.841 mPa·s	4.953 mPa·s and 4.919 mPa·s	4.214 mPa·s and 4.186 mPa·s
101.33 kPa	–	12 mPa·s	9.528 mPa·s	–	6.396 mPa·s	–	–

Cn1cc[n+](CCCC#N)c1.O=S(=O)([O-])C(F)(F)F
101 kPa
Settings	viscosity [mPa·s]
293.15 K	811.5
298.15 K	580.6
303.15 K	422.5
308.15 K	310.1
313.15 K	230.6
318.15 K	177.1
323.15 K	141.4

N#C[C-](C#N)C#N.OCCC[n+]1ccccc1
101 kPa
Settings	viscosity [mPa·s]
293.15 K	126.3
298.15 K	92.54
303.15 K	69.51
308.15 K	53.84
313.15 K	42.53
318.15 K	34.64
323.15 K	28.1

CC(C)CCO + OCCO
viscosity [mPa·s], [1], 100 kPa
Settings	x1 = 0.0538	x1 = 0.1127	x1 = 0.1769	x1 = 0.2492	x1 = 0.3333	x1 = 0.4312	x1 = 0.5385	x1 = 0.6667	x1 = 0.8167
298.15 K	17.29	16.59	15.84	14.92	13.82	12.46	10.93	8.999	6.622
303.15 K	13.53	13.1	12.52	11.8	10.97	9.889	8.629	7.087	5.243
308.15 K	11.48	11.11	10.72	10.22	9.549	8.689	7.683	6.336	4.792

CCOCCO + OCCO
[1]
Settings	viscosity [mPa·s]
293.15 K, 101 kPa, x1 = 0.0582	18.48
293.15 K, 101 kPa, x1 = 0.0952	16.68
293.15 K, 101 kPa, x1 = 0.2037	11.81
293.15 K, 101 kPa, x1 = 0.3098	7.965
293.15 K, 101 kPa, x1 = 0.4062	5.445
293.15 K, 101 kPa, x1 = 0.4503	4.568
293.15 K, 101 kPa, x1 = 0.5003	3.813
293.15 K, 101 kPa, x1 = 0.5413	3.301
293.15 K, 101 kPa, x1 = 0.5988	2.777
293.15 K, 101 kPa, x1 = 0.6952	2.401
293.15 K, 101 kPa, x1 = 0.8031	2.264
293.15 K, 101 kPa, x1 = 0.9002	2.143
293.15 K, 101 kPa, x1 = 0.9508	2.121
293.15 K, 101.33 kPa, x2 = 0.0923	2.519
293.15 K, 101.33 kPa, x2 = 0.2349	3.38
293.15 K, 101.33 kPa, x2 = 0.3267	4.07
293.15 K, 101.33 kPa, x2 = 0.4103	4.91
293.15 K, 101.33 kPa, x2 = 0.4957	6.008
293.15 K, 101.33 kPa, x2 = 0.5486	6.84
293.15 K, 101.33 kPa, x2 = 0.6451	8.722
293.15 K, 101.33 kPa, x2 = 0.7319	10.9
293.15 K, 101.33 kPa, x2 = 0.7782	12.29
293.15 K, 101.33 kPa, x2 = 0.8336	14.04
293.15 K, 101.33 kPa, x2 = 0.9075	16.88
293.15 K, 101.33 kPa, x2 = 0.9556	19.08
298.15 K, 101 kPa, x1 = 0.0423	15.82
298.15 K, 101 kPa, x1 = 0.1127	13.26
298.15 K, 101 kPa, x1 = 0.1983	10.12
298.15 K, 101 kPa, x1 = 0.2953	7.192
298.15 K, 101 kPa, x1 = 0.3988	4.883
298.15 K, 101 kPa, x1 = 0.4532	4.022
298.15 K, 101 kPa, x1 = 0.5005	3.474
298.15 K, 101 kPa, x1 = 0.5429	3.085
298.15 K, 101 kPa, x1 = 0.593	2.739
298.15 K, 101 kPa, x1 = 0.6905	2.349
298.15 K, 101 kPa, x1 = 0.8044	2.188
298.15 K, 101 kPa, x1 = 0.8963	2.021
298.15 K, 101 kPa, x1 = 0.9496	1.94
303.15 K, 101 kPa, x1 = 0.0596	12.4
303.15 K, 101 kPa, x1 = 0.1011	11.29
303.15 K, 101 kPa, x1 = 0.1976	8.571
303.15 K, 101 kPa, x1 = 0.3002	5.937
303.15 K, 101 kPa, x1 = 0.3989	4.122
303.15 K, 101 kPa, x1 = 0.4504	3.447
303.15 K, 101 kPa, x1 = 0.4926	2.988
303.15 K, 101 kPa, x1 = 0.5502	2.554
303.15 K, 101 kPa, x1 = 0.6034	2.237
303.15 K, 101 kPa, x1 = 0.7013	1.974
303.15 K, 101 kPa, x1 = 0.8026	1.954
303.15 K, 101 kPa, x1 = 0.8923	1.933
303.15 K, 101 kPa, x1 = 0.9401	1.883

CC[N+](CC)(CC)CC.[Br-] + OCCO
viscosity [mPa·s], [1], 100 kPa
Settings	298 K	298.15 K	308 K	318 K
x1 = 0.333	–	37.5	–	–
x2 = 0.75	28	–	18.5	13
